One compound from publication PMC7733455, “A novel multistage antiplasmodial inhibitor targeting Plasmodium falciparum histone deacetylase 1” (Cell Discovery, 2020) can be followed below.

Several values for one entry are separate records, joined by “and”; a condition that tells them apart may be missing. Equal values may be shown once.

The test system of series [1] is asynchronous 3D7 parasites. As to the kind of experiment: Time- and dose-dependent parasite inhibition assay. Type of series: cell-based, Plasmodium falciparum. As to the method: Asynchronous parasites (2% parasitemia, 4% hematocrit) were treated with the tested compounds at a concentration of 10, 30, 60, or 100 nM, respectively. At 3, 6, 12, and 24 h post treatment, parasitemia of each sample was detected by flow cytometry to investigate the time-dependent activity. Parasites from the same treatment were further washed to remove compounds, and parasitemia was diluted 1:40 by new RBCs into CM for an additional 4 days of culture. Parasitemia of each sample was detected by flow cytometry as described above to investigate the dose-dependent activity. DMSO was used as a blank control.

Series [2] deals with HepG2 cells. As to the kind of experiment: In vitro cytotoxicity analysis (CellTiter-Glo), HepG2. As to the method: (§1) In all, 1% DMSO was used as a negative control. The inhibition of each drug was normalized to that of the DMSO control. EC50 was calculated by GraphPad Prism. Three independent assays with two technical replicates each time were conducted in this experiment.

Assay in series [3]: as above
The following applies: human, HepG2 cells. As to the method:
as §1

Series [4] is described as follows: Liver microsome metabolism assay, human. Type of series: in vitro ADME. As to the method:
Liver microsomes (0.5 mg/mL) were purchased from Corning. Ketanserin was selected as a positive control. The tested compounds were first dissolved in DMSO to a concentration of 10 mM and then diluted to 0.5 mM with acetonitrile. Liver microsome buffer was used to dilute the compounds to a working concentration of 1.5 µM, 30 µL of which was mixed with 15 µL of 6 mM NADPH at 37 °C. At 0, 5, 15, 30, and 45 min after incubation, 135 µL of acetonitrile was added to quench the reaction. The mixture was shaken on a vortex mixer (IKA, MTS 2/4) for 10 min at 600 rpm/min and then centrifuged at 5594× g for 15 min (Thermo Multifuge×3R). The supernatant was diluted 1:1 into distilled water, and analyzed by LC-MS/MS.

Series [5] relates to P. falciparum C2A. As to the kind of experiment: 3-day SYBR Green I GIA, strain C2A. It counts as cell-based. The following applies: Plasmodium falciparum, read-out: Resistant isolates EC50, C2A. As to the method:
A 3-day SYBR Green I inhibition EC50 assay was performed as described previously. Briefly, highly synchronized ring-stage parasites by 5% sorbitol (1% parasitemia and 2% hematocrit) were incubated in a 96-well plate with compounds in a total volume of 200 μL. […] The parasites were cultured for 72 h before SYBR Green I staining as described above. The EC50 was calculated by GraphPad Prism. DHA was used as a positive control, and the final concentration of DMSO was 1%.

Series [6] has as its system 3D7^HDAC1-TY1. As to the kind of experiment: Sensitivity of transgenic parasites to JX21108, 3D7^HDAC1-TY1. The conditions noted are these: Plasmodium falciparum, 3D7, 4 h, read-out: EC50 for 3D7^HDAC1-TY1. Type of series: cell-based. As for the experimental part:
Highly synchronized schizont-stage parasites were prepared and treated as described above, with adjustments. […] After washing, parasites were cultured in new CM for another 68 h. Parasite growth was monitored by SYBR Green I staining, as described above. The EC50 was calculated by GraphPad Prism.

In series [7] the test system is parasite histone H3 acetylation. As to the kind of experiment: Western blot of histone H3 acetylation in parasites. Type of series: cell-based, Plasmodium falciparum. The following applies: 4 h treatment of asynchronous 3D7; quisinostat/JX21108 5 and 20 nM, SAHA 500 nM. As to the method:
Then the parasite samples were harvested and treated with 0.15% saponin to remove the RBC proteins and sonicated in 1% NP40 lysis buffer. After centrifugation at 12,000× g for 15 min, the supernatant was resuspended in a routine SDS loading buffer. Parasite proteins were separated by 10% SDS-PAGE and transferred onto PVDF membranes (Millipore). […] A2348) followed by a secondary antibody conjugated with HRP (Jackson Immuno Research Laboratories). The chemiluminescent HRP substrate Immobilon Western Kit (Millipore) was used for signal detection.

A short description of series [8]: Pharmacokinetic assay in mice. It counts as in vivo, BALB/c mice. The following applies: 5 mg/kg i.p. As for the experimental part: Five female BALB/c mice (6–8 weeks, 18–19 g) per group were purchased from JH Laboratory Animal Co., Ltd. All mice were raised at controlled temperature and humidity and had free access to food and water. Compounds were dissolved in 5% DMSO and diluted with 20% aqueous 2-hydroxypropyl-β-cyclodextrin solution to a stock concentration of 0.5 mg/mL. Each mouse was i.p. injected with the compound solution at a dose of 5 mg/kg. Blood samples collected by anticoagulant (K2EDTA)-containing tubes at 0.25, 0.5, 1, 2, 4, 8, and 24 h after injection were centrifuged at 2000× g at 4 °C for 5 min to obtain plasma. LC-MS/MS analysis of samples was carried out by an ACQUITY UPLC HSS T3 1.8-μm column. The mobile phase was a mixture of phase A (0.1% formic acid in water) and phase B (0.1% formic acid in acetonitrile), which ran in gradient mode at a flow rate of 0.6 mL/min at 60 °C. Mass spectra were obtained on an API6500 triple quadrupole equipped with an ESI source. Propranolol was used as an internal standard. The plasma concentrations of the compounds were analyzed, and the pharmacokinetic parameters were calculated via WinNonlin.

The target of series [9] is T1, hSirt2 (Homo sapiens, UniProt Q8IXJ6).
T1 construct: purchased BPS Bioscience 50013
T1 sequence (Q8IXJ6 whole entry): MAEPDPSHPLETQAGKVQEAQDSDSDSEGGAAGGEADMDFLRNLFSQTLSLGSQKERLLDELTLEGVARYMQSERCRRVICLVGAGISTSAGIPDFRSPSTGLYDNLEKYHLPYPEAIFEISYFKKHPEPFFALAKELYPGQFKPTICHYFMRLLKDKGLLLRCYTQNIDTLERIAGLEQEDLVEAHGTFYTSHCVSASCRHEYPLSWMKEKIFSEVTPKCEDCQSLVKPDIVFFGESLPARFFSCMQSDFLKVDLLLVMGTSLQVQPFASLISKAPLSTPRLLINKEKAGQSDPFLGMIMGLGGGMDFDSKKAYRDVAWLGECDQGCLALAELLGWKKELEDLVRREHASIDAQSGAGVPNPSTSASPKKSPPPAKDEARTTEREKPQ
As to the kind of experiment: Human HDAC inhibition assay, hSirt2. Type of series: biochemical. The following applies: performed only once; read-out: Inhibitory Activity IC50, hSirt2. As for the experimental part:
SAHA and suramin were used as positive controls. The tested compounds were dissolved into 20 mM stock in 100% DMSO. […] Ten microliters of trypsin and Ac-peptide substrate/Tris buffer solution were added to start the reaction, followed by a 1-h incubation at room temperature for HDACs 1–3 and 6. Ten microliters of Ac-peptide substrate/Tris buffer solution was added to start the reaction, followed by a 4-h incubation at room temperature and a further 2-h incubation with trypsin solution for HDAC8 and Sirt 2. […] This experiment was performed only once.

The mark [10] stands for this setting: female, BALB/c, mouse, plasma, ip.

In the case of `Cl.Cn1cc(CN2CCC3(CCN(c4ncc(C(=O)NO)cn4)C3)C2)c2cc(C#N)ccc21` (stereo not drawn) [JX21108], in series [1] (100 nM, 3 h, washed, 4 days culture), the “parasite growth after 3 h of treatment” value was “completely blocked parasite growth”. In series [1] (6-h treatment, washed, 1:40 dilution, 4 days culture), the “parasitemia measured 4 days after 6-h treatment” value is “substantial reduction in parasitemia”. Further, the “asexual growth of 3D7 after 12- and 24-h treatments” value in [1] (10-100 nM, parasitemia immediately after treatment) was “significantly inhibited the asexual growth of 3D7 parasites”. Moreover, the “Selectivity index for HepG2 (EC50 HepG2/EC50 3D7)” value in [2] is ~ 1060 and 1069 and 1060. This compound came in with an EC50 at 72 h in series [3] of 3.82 ± 0.145 µM. In series [4], the “CL in liver microsomes” value amounted to 0.2 L/h/kg. In addition, the half-life at 1 µM in [4] (human liver microsomes, read-out: T1/2 in liver microsomes) was 521 min. In addition, in series [5], the EC50 is 0.0029 ± 0.0007 µM. In series [6], the concentration giving a half-maximal response (EC50) amounted to 0.114 ± 0.0265 µM. Further, the “pan-acetylation levels of parasite histone H3” value in series [7] is reported as “greatly increased the pan-acetylation levels of parasite histone H3”. The V/F in [8] amounted to 15.4 L/kg. In series [8] (setting [10]), this compound gave an AUC(0-inf) of 0.434 µg·h/mL, an AUC(0-t) of 0.432 µg·h/mL and a half-life of 55.6 min. The CL/F in [8] (female, BALB/c, mouse, plasma, ip, read-out: CL/F (converted)) is 11.5 L/h/kg. Further, the maximum concentration (Cmax) in series [8] (female, BALB/c, mouse, plasma, ip, read-out: Cmax) turned out to be 0.511 µg/mL. Also, the time of peak concentration (Tmax) in series [8] (female, BALB/c, mouse, plasma, ip, read-out: Tmax) is 15 min. In series [9], the IC50 is more than 10 µM.

By EC50 is commonly meant the concentration needed to bring the measured effect to its halfway point. For orientation: AUC(0-inf) means the area under the concentration-time curve extrapolated to infinity. High values mean high exposure, low ones low exposure. What is called AUC(0-t) is exposure summed from dosing to a finite time, without extrapolation to infinity. Lower therefore signals low exposure. Broadly, the Cmax is the maximum level reached in the sampled fluid or tissue. Broadly, the Tmax is the time from dosing to the highest level. The IC50 is the concentration that gives 50% inhibition.
